Tests used:
KPC-2 [1] = biological target: T1, KPC-2 (Klebsiella pneumoniae, UniProt Q9F663); assay: Inhibition of purified beta-lactamase, nitrocefin cleavage; type: biochemical; settings: read-out: Ki (KPC-2, NCF)
Experimental: (§1) Purified enzymes were mixed with various concentrations of inhibitors in reaction buffer and incubated for 10 min at room temperature. Nitrocefin was added and substrate cleavage profiles were recorded at 490 nm every 10 sec for 10 min.

OXA-48 = OXA-48 (Klebsiella pneumoniae, UniProt Q6XEC0); assay: as above; type: biochemical; settings: read-out: Ki (OXA-48, NCF)
Experimental: as §1

SHV-12 = SHV-12 (Klebsiella pneumoniae, UniProt P0AD64, E235K/G234S/L31Q); assay: as above; type: biochemical; settings: read-out: Ki (SHV-12, NCF)
Experimental: as §1

CMY-2 = CMY-2 (Klebsiella pneumoniae, UniProt Q48434); assay: as above; type: biochemical; settings: nitrocefin; read-out: Ki (CMY-2, NCF)
Experimental: as §1

CTX-M-14 = CTX-M-14 (Escherichia coli, UniProt Q9L5C7); assay: as above; type: biochemical
Experimental: as §1

P99/AmpC of ECL = P99/AmpC of ECL (Enterobacter cloacae, UniProt P05364); assay: biochemical; settings: nitrocefin; read-out: Ki (P99/AmpC of ECL, NCF)
Experimental: as §1

NDM-1 = NDM-1 (Klebsiella pneumoniae, UniProt C7C422); assay: biochemical; settings: substrate imipenem 100 μM
KPC-2 [2] = biological target: T1, KPC-2; assay: Inhibition of purified class A carbapenemase, biapenem cleavage; type: biochemical; settings: substrate biapenem 100 μM
[3] = test system: KP1087 (KPC-2, CTX-M-15, SHV-11, TEM-1); type: cell-based, Klebsiella pneumoniae; settings: KP1087; alone
Text: (§2) The results are present in Table 6.
(§3) The results are present in Table 7.

[4] = test system: KP1081 (NDM-1, TEM-1, SHV-11, CMY-6, CTX-M-15); type: cell-based, Klebsiella pneumoniae; settings: KP1081; alone
Text: as §2, §3

T1 sequence (Q9F663 25-293, looked up, species assumed): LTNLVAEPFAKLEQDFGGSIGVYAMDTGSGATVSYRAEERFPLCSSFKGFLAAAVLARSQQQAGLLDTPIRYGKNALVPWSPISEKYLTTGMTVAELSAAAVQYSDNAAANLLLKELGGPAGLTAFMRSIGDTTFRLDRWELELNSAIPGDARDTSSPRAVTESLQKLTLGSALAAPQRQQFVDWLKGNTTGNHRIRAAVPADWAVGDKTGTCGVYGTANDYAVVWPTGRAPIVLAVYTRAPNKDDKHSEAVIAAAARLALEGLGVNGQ
CMY-2, sequence (Q48434 21-381, species assumed): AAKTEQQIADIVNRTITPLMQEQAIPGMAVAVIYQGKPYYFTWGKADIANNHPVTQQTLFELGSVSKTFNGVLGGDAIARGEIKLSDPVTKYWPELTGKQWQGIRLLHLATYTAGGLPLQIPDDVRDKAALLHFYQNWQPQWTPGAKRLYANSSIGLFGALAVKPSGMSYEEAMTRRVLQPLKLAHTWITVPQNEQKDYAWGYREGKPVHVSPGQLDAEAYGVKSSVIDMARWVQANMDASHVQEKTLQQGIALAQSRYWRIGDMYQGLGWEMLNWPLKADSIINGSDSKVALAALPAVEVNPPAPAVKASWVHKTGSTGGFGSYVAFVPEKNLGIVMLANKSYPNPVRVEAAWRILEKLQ
NDM-1, sequence (C7C422 29-270, looked up, species assumed): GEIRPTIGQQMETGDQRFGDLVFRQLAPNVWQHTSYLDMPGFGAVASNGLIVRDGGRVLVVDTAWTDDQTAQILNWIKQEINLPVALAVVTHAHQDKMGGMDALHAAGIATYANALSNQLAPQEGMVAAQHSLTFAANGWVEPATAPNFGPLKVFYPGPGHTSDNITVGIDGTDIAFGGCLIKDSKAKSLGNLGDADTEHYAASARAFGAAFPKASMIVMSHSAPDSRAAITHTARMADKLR
SHV-12, sequence (P0AD64 22-286 L31Q/G234S/E235K): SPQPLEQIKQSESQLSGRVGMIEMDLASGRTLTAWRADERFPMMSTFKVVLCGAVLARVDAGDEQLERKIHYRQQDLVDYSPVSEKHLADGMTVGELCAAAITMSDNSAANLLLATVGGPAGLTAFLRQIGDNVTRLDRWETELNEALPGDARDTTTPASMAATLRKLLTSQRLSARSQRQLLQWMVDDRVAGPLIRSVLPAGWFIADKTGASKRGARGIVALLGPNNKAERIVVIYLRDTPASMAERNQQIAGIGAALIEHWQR
OXA-48, sequence (Q6XEC0 23-265, looked up): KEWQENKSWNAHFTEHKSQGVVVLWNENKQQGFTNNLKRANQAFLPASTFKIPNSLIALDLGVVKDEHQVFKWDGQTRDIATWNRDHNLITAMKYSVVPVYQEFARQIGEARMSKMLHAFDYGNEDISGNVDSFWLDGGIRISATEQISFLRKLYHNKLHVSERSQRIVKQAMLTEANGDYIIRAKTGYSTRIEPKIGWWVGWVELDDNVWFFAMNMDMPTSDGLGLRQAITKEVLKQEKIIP
P99/AmpC of ECL, sequence (P05364 21-381): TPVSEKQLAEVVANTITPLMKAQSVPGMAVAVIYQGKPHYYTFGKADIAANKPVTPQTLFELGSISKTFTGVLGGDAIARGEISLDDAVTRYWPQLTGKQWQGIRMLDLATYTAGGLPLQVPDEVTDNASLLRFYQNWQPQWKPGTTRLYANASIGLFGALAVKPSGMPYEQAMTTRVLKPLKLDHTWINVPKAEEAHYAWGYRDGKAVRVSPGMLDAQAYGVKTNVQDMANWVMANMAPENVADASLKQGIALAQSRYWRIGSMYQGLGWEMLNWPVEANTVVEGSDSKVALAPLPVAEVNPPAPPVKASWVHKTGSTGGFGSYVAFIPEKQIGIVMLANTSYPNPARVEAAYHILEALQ
CTX-M-14, sequence (Q9L5C7 entry or part of it): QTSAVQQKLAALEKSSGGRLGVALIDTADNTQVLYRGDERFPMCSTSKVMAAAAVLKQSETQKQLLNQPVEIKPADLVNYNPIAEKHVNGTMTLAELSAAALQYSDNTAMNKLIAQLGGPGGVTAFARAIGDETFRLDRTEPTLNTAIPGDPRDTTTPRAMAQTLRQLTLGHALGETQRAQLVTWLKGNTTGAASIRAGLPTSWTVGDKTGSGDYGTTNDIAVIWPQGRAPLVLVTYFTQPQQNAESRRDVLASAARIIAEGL

Structure (SMILES)	Ki (KPC-2 [1]) [µM]	Ki (OXA-48) [µM]	Ki (SHV-12) [µM]	Ki (CMY-2) [µM]	Ki (CTX-M-14) [µM]	Ki (P99/AmpC of ECL) [µM]	Ki (NDM-1) [µM]	Ki (KPC-2 [2]) [µM]	Carbapenem MIC alone [3]	Carbapenem MIC alone [4]
NC(=O)CCS[C@H]1Cc2cccc(C(=O)O)c2OB1O [Compound 9, (R)-3-(3-amino-3-oxopropylthio)-2-hydroxy-3,4-dihydro-2H-benzo[e][1,2]oxaborinine-8-carboxylic acid]	< 0.1	< 0.1	0.1 to 1	< 0.1	< 0.1	< 0.1	–	–	–	–
CO[C@H]1Cc2ccc(F)c(C(=O)O)c2OB1O [Compound 19, (R)-7-fluoro-2-hydroxy-3-methoxy-3,4-dihydro-2H-benzo[e][1,2]oxaborinine-8-carboxylic acid]	< 0.1	< 0.1	< 0.1	–	< 0.1	< 0.1	> 0.1	–	–	–
NC(=O)CS[C@H]1Cc2cccc(C(=O)O)c2OB1O [Compound 3, (R)-3-(2-amino-2-oxoethylthio)-2-hydroxy-3,4-dihydro-2H-benzo[e][1,2]oxaborinine-8-carboxylic acid]	< 0.1	< 0.1	0.1 to 1	< 0.1	< 0.1	< 0.1	–	0.01 to 0.1	–	–
Cn1cnnc1S[C@H]1Cc2cccc(C(=O)O)c2OB1O [Compound 15, (R)-2-hydroxy-3-(4-methyl-4H-1,2,4-triazol-3-ylthio)-3,4-dihydro-2H-benzo[e][1,2]oxaborinine-8-carboxylic acid]	0.1 to 1	< 0.1	< 0.1	< 0.1	< 0.1	< 0.1	< 0.01	0.01 to 0.1	–	–
NC(=O)CC1Cc2cccc(C(=O)O)c2OB1O (centres unmarked) [Compound 22, 3-(2-amino-2-oxoethyl)-2-hydroxy-3,4-dihydro-2H-benzo[e][1,2]oxaborinine-8-carboxylic acid]	< 0.1	< 0.1	< 0.1	< 0.1	< 0.1	< 0.1	–	–	–	–
C[C@@H](O)[C@H]1C(=O)N2C(C(=O)O)=C(S[C@@H]3CN[C@H](CNS(N)(=O)=O)C3)[C@H](C)[C@H]12 [Doripenem]	–	–	–	–	–	–	–	–	Z (MIC of greater than 10 μg/mL)	Z (MIC of greater than 10 μg/mL)
C[C@@H](O)[C@H]1C(=O)N2C(C(=O)[O-])=C(SC3Cn4cnc[n+]4C3)[C@H](C)[C@H]12 (some centres unmarked) [Biapenem]	–	–	–	–	–	–	–	–	Z (MIC of greater than 10 μg/mL)	Z (MIC of greater than 10 μg/mL)
O=C(O)c1cccc2c1OB(O)[C@@H](Sc1nnc[nH]1)C2 [Compound 2, (R)-3-(4H-1,2,4-triazol-3-ylthio)-2-hydroxy-3,4-dihydro-2H-benzo[e][1,2]oxaborinine-8-carboxylic acid]	0.1 to 1	< 0.1	< 0.1	0.1 to 1	0.1 to 1	0.1 to 1	–	0.01 to 0.1	–	–
CC(=O)Nc1nnc(S[C@H]2Cc3cccc(C(=O)O)c3OB2O)s1 [Compound 7, (R)-3-(5-acetamido-1,3,4-thiadiazol-2-ylthio)-2-hydroxy-3,4-dihydro-2H-benzo[e][1,2]oxaborinine-8-carboxylic acid]	–	< 0.1	< 0.1	< 0.1	< 0.1	< 0.1	–	–	–	–
CS[C@H]1Cc2cccc(C(=O)O)c2OB1O [Compound 16, (R)-2-hydroxy-3-(methylthio)-3,4-dihydro-2H-benzo[e][1,2]oxaborinine-8-carboxylic acid]	< 0.1	< 0.1	0.1 to 1	–	< 0.1	< 0.1	> 0.1	0.01 to 0.1	–	–

Source: patent US9132140B2, “Boronic acid derivatives and therapeutic uses thereof” (Rempex Pharmaceuticals, Inc., priority 2013, dated 2015)
